IC50 data for 38 compounds are collected here from US7855213B2 (AstraZeneca AB, priority 2006, dated 2010).

Where a name gives a salt, the structure may show the parent alone.

The target in this test is T1, human β-Secretase (Homo sapiens, UniProt P56817).
T1 construct: The soluble part of the human β-Secretase (AA 1-AA 460) was cloned; made in house
T1 sequence (P56817 22-460): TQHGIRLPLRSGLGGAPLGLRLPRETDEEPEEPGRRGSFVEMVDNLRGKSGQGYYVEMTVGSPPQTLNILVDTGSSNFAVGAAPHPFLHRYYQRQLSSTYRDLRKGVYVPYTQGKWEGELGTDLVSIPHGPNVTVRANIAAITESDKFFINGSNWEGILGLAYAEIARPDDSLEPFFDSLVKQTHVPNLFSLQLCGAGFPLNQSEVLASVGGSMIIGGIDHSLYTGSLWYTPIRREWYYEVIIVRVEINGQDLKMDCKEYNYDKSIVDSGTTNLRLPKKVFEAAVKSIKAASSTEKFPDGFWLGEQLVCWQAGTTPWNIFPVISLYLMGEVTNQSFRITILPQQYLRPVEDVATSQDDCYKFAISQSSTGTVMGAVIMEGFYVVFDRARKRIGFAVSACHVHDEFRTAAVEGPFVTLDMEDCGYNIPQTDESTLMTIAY
The experiment in a line: TR-FRET assay. The format is biochemical.
As to `Cc1nn(C)c(Cl)c1S(=O)(=O)Oc1cccc(C2(c3cc(Cl)nc(Cl)c3)N=C(N)c3ccccc32)c1` (centres unmarked) [Example 131, 3-[3-Amino-1-(2,6-dichloropyridin-4-yl)-1H-isoindol-1-yl]phenyl 5-chloro-1,3-dimethyl-1H-pyrazole-4-sulfonate], the IC50 stood at 1070 nM.

Take `CC(C)c1cc(C2(c3cccc(-c4cncnc4)c3)N=C(N)c3ccccc32)ccn1` (centres unmarked) [Example 114, 1-(2-Isopropylpyridin-4-yl)-1-(3-pyrimidin-5-ylphenyl)-1H-isoindol-3-amine]: half-maximal inhibition (IC50) was put at 300 nM.

`COc1cccc(-c2cccc(C3(c4ccncc4F)N=C(N)c4ccccc43)c2)c1F` (centres unmarked) [Example 100, 1-(2′-Fluoro-3′-methoxybiphenyl-3-yl)-1-(3-fluoropyridin-4-yl)-1H-isoindol-3-amine] displayed a 50% inhibitory concentration (IC50) of 220 nM.

Consider `NC1=NC(c2ccc(OC(F)(F)F)cc2)(c2cccc(-c3cncnc3)c2)c2ccccc21` (centres unmarked) [Example 57, 1-(3-Pyrimidin-5-ylphenyl)-1-[4-(trifluoromethoxy)phenyl]-1H-isoindol-3-amine 0.25 acetate], for which the IC50 was 180 nM.

In the case of `NC1=NC(c2ccc(C(F)(F)F)cc2)(c2cccc(-c3cncnc3)c2)c2ccccc21` (centres unmarked) [Example 60, 1-(3-Pyrimidin-5-ylphenyl)-1-[4-(trifluoromethyl)phenyl]1H-isoindol-3-amine 0.25 acetate], it took 570 nM to reach half-maximal inhibition (IC50).

Take `COc1cncc(-c2cccc(C3(c4ccncc4)N=C(N)c4ccc(F)cc43)c2)c1` (centres unmarked) [Example 85, 6-Fluoro-1-[3-(5-methoxypyridin-3-yl)phenyl]-1-pyridin-4-yl-1H-isoindol-3-amine]: the 50% inhibitory concentration (IC50) amounted to 45 nM.

The compound `COc1cncc(-c2cccc(C3(c4ccc(OC)c(C)c4)N=C(N)c4ccccc43)c2)c1` (centres unmarked) [Example 21, 3-(4-Methoxy-3-methyl-phenyl)-3-[3-(5-methoxy-pyridin-3-yl)-phenyl]-3H-isoindol-1-ylamine trifluoroacetate] gave a half-maximal inhibitory concentration (IC50) of 42 nM.

With `NC1=NC(c2cccc(-c3cncnc3)c2)(c2ccncc2F)c2ccccc21` (centres unmarked) [Example 72, 1-(3-Fluoropyridin-4-yl)-1-(3-pyrimidin-5-ylphenyl)-1H-isoindol-3-amine 1.25 acetate], the IC50 stood at 250 nM.

`N#Cc1ccc(C2(c3cccc(-c4cncnc4)c3)N=C(N)c3ccccc32)cc1` (centres unmarked) [Example 58, 4-[3-Amino-1-(3-pyrimidin-5-ylphenyl)-1H-isoindol-1-yl]benzonitrile 0.25 acetate]: the IC50 is 710 nM.

In turn, `COc1ccc(C2(c3ccc(O)c(-c4cccc(OC)c4)c3)N=C(N)c3ccccc32)cc1` (centres unmarked) [Example 4, 5-[3-Amino-1-(4-methoxy-phenyl)-1H-isoindol-1-yl]-3′-methoxy-biphenyl-2-ol trifluoroacetate] gave an IC50 of 67 nM.

The compound `NC1=NC(c2ccc(C(F)(F)F)nc2)(c2cccc(-c3cncnc3)c2)c2ccccc21` (centres unmarked) [Example 130, 1-(3-Pyrimidin-5-ylphenyl)-1-[6-(trifluoromethyl)pyridin-3-yl]-1H-isoindol-3-amine 0.66 acetate] showed an IC50 of 1300 nM.

In turn, `NC1=NC(c2ccccc2)(c2ccccc2)c2ccccc21` [Example 1, 3,3-Diphenyl-3H-isoindol-1-ylamine] came in with a 50% inhibitory concentration (IC50) of 9140 nM.

Turning to `NC1=NC(c2ccncc2)(c2ccc(F)c(-c3cccnc3F)c2)c2ccccc21` (centres unmarked) [Example 105, 1-[4-Fluoro-3-(2-fluoropyridin-3-yl)phenyl]-1-pyridin-4-yl-1H-isoindol-3-amine], the half-inhibitory concentration (IC50) came out at 29 nM.

Regarding `COc1ccc(C2(c3cccc(-c4cccnc4F)c3)N=C(N)c3ccccc32)cc1` (centres unmarked) [Example 10, 3-[3-(2-Fluoro-pyridin-3-yl)-phenyl]-3-(4-methoxy-phenyl)-3H-isoindol-1-ylamine trifluoroacetate], the IC50 worked out at 78 nM.

For the compound `CC1(c2cccc(-c3cncc(F)c3)c2)N=C(N)c2ccccc21` (centres unmarked) [Example 98, 1-[3-(5-Fluoropyridin-3-yl)phenyl]-1-methyl-1H-isoindol-3-amine acetate], the IC50 is 2000 nM.

With `CC1(c2cccc(-c3cc(Cl)cc(Cl)c3)c2)N=C(N)c2ccccc21` (centres unmarked) [Example 94, 1-(3′,5′-Dichlorobiphenyl-3-yl)-1-methyl-1H-isoindol-3-amine hydrochloride], the concentration for half-maximal inhibition (IC50) was 880 nM.

On to `COc1ccc(C2(c3cccc(-c4ccccc4C(N)=O)c3)N=C(N)c3ccccc32)cc1` (centres unmarked) [Example 55, 3′-[3-Amino-1-(4-methoxyphenyl)-1H-isoindol-1-yl]biphenyl-2-carboxamide 0.5 acetate], for which the midpoint of inhibition, the IC50, lay at 2000 nM.

Take `NC1=NC(c2cccc(-c3cccnc3F)c2)(c2ccncc2F)c2ccccc21` (centres unmarked) [Example 73, 1-(3-Fluoropyridin-4-yl)-1-[3-(2-fluoropyridin-3-yl)phenyl]-1H-isoindol-3-amine 1.25 acetate]: the IC50 came to 130 nM.

The compound `CS(=O)(=O)Oc1ccc(C2(c3cccc(-c4cccnc4F)c3)N=C(N)c3ccccc32)cc1` (centres unmarked) [Example 37, Methanesulfonic acid 4-{3-amino-1-[3-(2-fluoro-pyridin-3-yl)-phenyl]-1H-isoindol-1-yl}-phenyl ester trifluoroacetate] registered an IC50 of 569 nM.

`NC1=NC(c2ccc(C(F)(F)F)cc2)(c2cccc(-c3cncc(F)c3)c2)c2ccccc21` (centres unmarked) [Example 59, 1-[3-(5-Fluoropyridin-3-yl)phenyl]-1-[4-(trifluoromethyl)phenyl]-1H-isoindol-3-amine 0.25 acetate] yielded an IC50 of 630 nM. The IC50 values of the last two compounds are within 1.5-fold of each other.

`NC1=NC(c2cccc(-c3cccnc3F)c2)(c2ccc3c(c2)OCCO3)c2ccccc21` (centres unmarked) [Example 15, 3-(2,3-Dihydrobenzo[b][1,4]dioxin-6-yl)-3-(3-(2-fluoropyridin-3-yl)phenyl)-3H-isoindol-1-amine trifluoroacetate] gave a concentration for half-maximal inhibition (IC50) of 748 nM.

For `N#Cc1cncc(-c2cccc(C3(c4ccncc4)N=C(N)c4ccccc43)c2)c1` (centres unmarked) [Example 77, 5-[3-(3-Amino-1-pyridin-4-yl-1H-isoindol-1-yl)phenyl]nicotinonitrile acetate], the IC50 came to 150 nM. This IC50 is about 5-fold lower than that of the compound before.

`COc1ncc(C2(c3cccc(-c4cccc(OC)c4F)c3)N=C(N)c3ccccc32)cn1` (centres unmarked) [Example 109, 1-(2′-Fluoro-3′-methoxybiphenyl-3-yl)-1-(2-methoxypyrimidin-5-yl)-1H-isoindol-3-amine] returned a half-maximal inhibitory concentration (IC50) of 750 nM.

`COc1ccc(C2(c3cccc(-c4cc(Cl)cc(Cl)c4)c3)N=C(N)c3ccccc32)cc1` (centres unmarked) [Example 88, 1-(3′,5′-Dichlorobiphenyl-3-yl)-1-(4-methoxyphenyl)-1H-isoindol-3-amine acetate] came in with a half-maximal inhibitory concentration (IC50) of 65 nM.

The compound `COc1ccc(C2(c3cccc(-c4cccnc4F)c3)N=C(N)c3ccccc32)cc1C` (centres unmarked) [Example 24, 3-[3-(2-Fluoro-pyridin-3-yl)-phenyl]-3-(4-methoxy-3-methyl-phenyl)-3H-isoindol-1-ylamine trifluoroacetate] displayed a concentration for half-maximal inhibition (IC50) of 54 nM.

The compound `NC1=NC(c2cccc(-c3cccnc3F)c2)(c2ccc3c(c2)OCO3)c2ccccc21` (centres unmarked) [Example 31, 3-Benzo[1,3]dioxol-5-yl-3-[3-(2-fluoropyridin-3-yl)-phenyl]-3H-isoindol-1-ylamine trifluoroacetate] came in with a half-inhibitory concentration (IC50) of 768 nM.

`NC1=NC(c2cccc(-c3cccnc3)c2)(c2ccc3c(c2)OCO3)c2ccccc21` (centres unmarked) [Example 28, 3-Benzo[1,3]dioxol-5-yl-3-(3-pyridin-3-yl)-3H-isoindol-1-ylamine trifluoroacetate] had an IC50 of 1610 nM. Compared with the last compound, the IC50 is about 2.1-fold higher.

As for `NC1=NC(c2cccc(OS(=O)(=O)C(F)(F)F)c2)(c2ccc(F)c(-c3cccnc3F)c2)c2ccccc21` (centres unmarked) [Example 135], the half-maximal inhibitory concentration (IC50) amounted to 269 nM.

Consider `NC1=NC(c2cncc(F)c2)(c2cccc(-c3cccnc3F)c2)c2ccccc21` (centres unmarked) [Example 124, 1-(5-Fluoropyridin-3-yl)-1-[3-(2-fluoropyridin-3-yl)phenyl]-1H-isoindol-3-amine], for which half-maximal inhibition (IC50) was put at 560 nM.

Turning to `NC1=NC(c2cccc(OS(=O)(=O)C(F)(F)F)c2)(c2ccc(F)c(-c3cncnc3)c2)c2ccccc21` (centres unmarked) [Example 134, 3-[3-Amino-1-(4-fluoro-3-pyrimidin-5-ylphenyl)-1H-isoindol-1-yl]phenyl trifluoromethanesulfonate], the IC50 came to 347 nM.

In turn, `NC1=NC(c2ccncc2)(c2cccc(-c3cncnc3)c2)c2cc(Cl)ccc21` (centres unmarked) [Example 129, 6-Chloro-1-pyridin-4-yl-1-(3-pyrimidin-5-ylphenyl)-1H-isoindol-3-amine] gave a 50% inhibitory concentration (IC50) of 85 nM.

For the compound `NC1=NC(c2ccncc2)(c2cccc(-c3cccnc3F)c2)c2ccccc21` (centres unmarked) [Example 42, 3-[3-(2-Fluoro-pyridin-3-yl)-phenyl]-3-pyridin-4-yl-3H-isoindol-1-ylamine trifluoroacetate], 110 nM corresponded to half-maximal inhibition (IC50).

In the case of `CC(C)C1(c2cccc(-c3cncnc3)c2)N=C(N)c2ccccc21` (centres unmarked) [Example 97, 1-Isopropyl-1-(3-pyrimidin-5-ylphenyl)-1H-isoindol-3-amine acetate], the 50% inhibitory concentration (IC50) was 1000 nM.

The compound `COc1ncc(C2(c3cccc(-c4cccnc4F)c3)N=C(N)c3ccccc32)cn1` (centres unmarked) [Example 107, 1-[3-(2-Fluoropyridin-3-yl)phenyl]-1-(2-methoxypyrimidin-5-yl)-1H-isoindol-3-amine] returned an IC50 of 440 nM.

The compound `NC1=NC(c2cccc(-c3cccnc3F)c2)(c2ccnc(Cl)c2)c2ccccc21` (centres unmarked) [Example 121, 1-(2-Chloropyridin-4-yl)-1-[3-(2-fluoropyridin-3-yl)phenyl]-1H-isoindol-3-amine] showed a half-maximal inhibitory concentration (IC50) of 80 nM. This IC50 is about 5.5-fold lower than that of the compound before.

For the compound `NC1=NC(c2ccncc2)(c2cccc(-c3cncc(F)c3)c2)c2ccccc21` (centres unmarked) [Example 67, 1-[3-(5-Fluoropyridin-3-yl)phenyl]-1-pyridin-4-yl-1H-isoindol-3-amine 0.75 acetate], the IC50 was determined as 92 nM.

Turning to `COc1cncc(-c2cccc(C3(c4ccncc4)N=C(N)c4ccccc43)c2)c1` (centres unmarked) [Example 46, 3-[3-(5-Methoxy-pyridin-3-yl)-phenyl]-3-pyridin-4-yl-3H-isoindol-1-ylamine trifluoroacetate], the 50% inhibitory concentration (IC50) turned out to be 98 nM.

In turn, `NC1=NC(c2cncc(F)c2)(c2cccc(-c3cncnc3)c2)c2ccccc21` (centres unmarked) [Example 125, 1-(5-Fluoropyridin-3-yl)-1-(3-pyrimidin-5-ylphenyl)-1H-isoindol-3-amine] yielded an IC50 of 810 nM.
